The supplement of paper PMC11061612

How the values were obtained:
Assay in all cases: Bliss excess, mean over the matrix (fraction); higher = more synergy
[1] = test system: 697 (B-Lymphoblastic Leukemia)
Summary of the method: (§1)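 Bliss excess equals the observed combination effect minus the expected value EA + EB − EA·EB, where EA and EB are the effects of each agent alone. Combination Emax is the second-highest inhibition within the matrix. Inhibition was scaled from CellTiter-Glo 2.0 luminescence, with 0 set by vehicle wells and 1 by blank wells, after 72 hours of two-drug dosing of cells plated in 1536-well plates.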

[2] = test system: CFPAC-1 (Pancreatic Carcinoma)
Summary of the method: as §1

[3] = test system: COR-L95 (Small Cell Lung Carcinoma)
Summary of the method: as §1

[4] = test system: DB (B-Cell Non-Hodgkin's Lymphoma)
Summary of the method: as §1

DSH1 (Bladder Carcinoma) = test system: DSH1 (Bladder Carcinoma)
Summary of the method: as §1

ES7 (Ewing's Sarcoma) = test system: ES7 (Ewing's Sarcoma)
Summary of the method: as §1

[5] = test system: IHH-4 (Thyroid Gland Carcinoma)
Summary of the method: as §1

J82 (Bladder Carcinoma) = test system: J82 (Bladder Carcinoma)
Summary of the method: as §1

[6] = test system: KARPAS-1106P (B-Cell Non-Hodgkin's Lymphoma)
Summary of the method: as §1

[7] = test system: KARPAS-620 (Plasma Cell Myeloma)
Summary of the method: as §1

[8] = test system: KATOIII (Gastric Carcinoma)
Summary of the method: as §1

[9] = test system: KM-H2 (Hodgkin's Lymphoma)
Summary of the method: as §1

[10] = test system: LS-513 (Colorectal Carcinoma)
Summary of the method: as §1

[11] = test system: MDA-MB-157 (Breast Carcinoma)
Summary of the method: as §1

[12] = test system: NCI-H1299 (Non-Small Cell Lung Carcinoma)
Summary of the method: as §1

[13] = test system: NCI-H1694 (Small Cell Lung Carcinoma)
Summary of the method: as §1

[14] = test system: OCI-AML2 (Acute Myeloid Leukemia)
Summary of the method: as §1

SN12C (Kidney Carcinoma) = test system: SN12C (Kidney Carcinoma)
Summary of the method: as §1

[15] = test system: SUIT-2 (Pancreatic Carcinoma)
Summary of the method: as §1

[16] = test system: SW1088 (Low Grade Glioma)
Summary of the method: as §1

Compound | Bliss excess [1] | Bliss excess [2] | Bliss excess [3] | Bliss excess [4] | Bliss excess (DSH1 (Bladder Carcinoma)) | Bliss excess (ES7 (Ewing's Sarcoma)) | Bliss excess [5] | Bliss excess (J82 (Bladder Carcinoma)) | Bliss excess [6] | Bliss excess [7] | Bliss excess [8] | Bliss excess [9] | Bliss excess [10] | Bliss excess [11] | Bliss excess [12] | Bliss excess [13] | Bliss excess [14] | Bliss excess (SN12C (Kidney Carcinoma)) | Bliss excess [15] | Bliss excess [16]
Cc1cc2ncnn2cc1Nc1ncc2c(n1)n(C1CCOCC1)c(=O)n2C [AZD7648] + CN(C)CCCOc1ccc(-c2ccc3ncc4c(c3c2)n(C2CCOCC2)c(=O)n4C)cn1 [AZD0156] (first compound max 10 µM, 7x7, partner max 1 µM) | -0.0136 | 0.0064 | -0.0218 | -0.0402 | 0.0171 | 0.0271 | 0.0352 | -0.0131 | 0.0083 | -0.0373 | -0.0204 | 0.0208 | -0.021 | 0.0406 | 0.0177 | 0.0062 | -0.022 | -0.0388 | -0.0125 | -0.0698
COc1cccc(OCCCN)c1-c1cc(Nc2cnc(C#N)cn2)n[nH]1 [Prexasertib] + Cc1cc2ncnn2cc1Nc1ncc2c(n1)n(C1CCOCC1)c(=O)n2C [AZD7648] (first compound max 1 µM, 7x7, partner max 10 µM) | -0.0293 | -0.0398 | -0.102 | -0.0319 | -0.0289 | -0.0483 | -0.0109 | 0.0089 | -0.0595 | 0.0083 | 0.0048 | -0.023 | -0.0509 | -0.0594 | -0.0577 | -0.0259 | -0.0211 | -0.0816 | -0.0063 | -0.0975
Cc1nc(Nc2ncc(C(=O)Nc3c(C)cccc3Cl)s2)cc(N2CCN(CCO)CC2)n1 [Dasatinib] + CC(=O)Nc1cccc(-n2c(=O)n(C3CC3)c(=O)c3c(Nc4ccc(I)cc4F)n(C)c(=O)c(C)c32)c1 [Trametinib] (first compound max 2 µM, 7x7, partner max 1 µM) | -0.0461 | 0.106 | -0.0318 | -0.0005 | -0.0516 | -0.0112 | 0.112 | -0.0068 | 0.122 | 0.0632 | -0.0164 | -0.0367 | 0.0777 | -0.0026 | 0.035 | -0.0311 | 0.0363 | -0.0254 | 0.0197 | -0.0087
Cc1c2c(nn1C)CSCc1cc(n(C)n1)CSc1cc(c3ccccc3c1)OCCCc1c(C(=O)O)n(C)c3c-2c(Cl)ccc13 [AZD5991] + Cn1cnc2c(F)c(Nc3ccc(Br)cc3Cl)c(C(=O)NOCCO)cc21 [Selumetinib] (first compound max 1 µM, 7x7, partner max 3 µM) | -0.0462 | 0.0044 | -0.039 | 0.0063 | -0.0881 | 0.0375 | -0.026 | -0.0073 | 0.0497 | 0.0919 | -0.0085 | 0.0029 | -0.0242 | -0.0098 | -0.0039 | -0.0048 | 0.0107 | -0.0425 | -0.0135 | -0.0543
COc1cccc(OCCCN)c1-c1cc(Nc2cnc(C#N)cn2)n[nH]1 [Prexasertib] + CCc1c2c(nc3ccc(O)cc13)-c1cc3c(c(=O)n1C2)COC(=O)[C@]3(O)CC [SN-38] (first compound max 1 µM, 7x7, partner max 0.3 µM) | 0.0017 | -0.107 | -0.121 | -0.0299 | 0.0128 | -0.012 | -0.0653 | -0.0177 | -0.124 | 0.0396 | -0.0168 | -0.0411 | -0.0691 | 0.0027 | -0.0161 | 0.0037 | -0.0094 | -0.0237 | -0.0582 | 0.0128
CC(=O)c1c(C)c2cnc(Nc3ccc(N4CCNCC4)cn3)nc2n(C2CCCC2)c1=O [Palbociclib] + Cc1c2c(nn1C)CSCc1cc(n(C)n1)CSc1cc(c3ccccc3c1)OCCCc1c(C(=O)O)n(C)c3c-2c(Cl)ccc13 [AZD5991] (first compound max 10 µM, 7x7, partner max 1 µM) | -0.0709 | -0.0063 | -0.0112 | 0.0577 | -0.0748 | -0.005 | -0.0171 | -0.0174 | -0.0645 | 0.0443 | 0.0505 | -0.0228 | -0.0235 | -0.0408 | 0.0018 | -0.073 | 0.004 | -0.0358 | -0.014 | 0.0212
NC1(C(=O)N[C@@H](CCO)c2ccc(Cl)cc2)CCN(c2ncnc3[nH]ccc23)CC1 [Capivasertib] + CC(C)n1c(=O)n(C)c2cnc3cc(F)c(-c4ccc(OCCCN5CCCCC5)nc4)cc3c21 [AZD1390] (first compound max 10 µM, 7x7, partner max 0.3 µM) | -0.0197 | -0.0828 | -0.0425 | -0.0494 | -0.0895 | -0.0471 | -0.0074 | -0.0659 | -0.0004 | -0.0273 | -0.118 | -0.0554 | -0.0511 | -0.0306 | -0.0362 | -0.0081 | -0.0448 | -0.0454 | -0.0441 | -0.0822
Cc1c2c(nn1C)CSCc1cc(n(C)n1)CSc1cc(c3ccccc3c1)OCCCc1c(C(=O)O)n(C)c3c-2c(Cl)ccc13 [AZD5991] + C[C@@H](Nc1cc(F)cc(F)c1)c1cc(C(=O)N(C)C)cc2c(=O)cc(N3CCOCC3)oc12 [AZD8186] (first compound max 1 µM, 7x7, partner max 3 µM) | -0.0743 | -0.0077 | -0.0012 | -0.0287 | -0.0603 | 0.0995 | 0.0184 | 0.0359 | 0.0154 | -0.0113 | -0.0132 | -0.0338 | -0.0331 | 0.0836 | -0.0181 | 0.0151 | -0.0721 | -0.0725 | -0.015 | 0.0098
CN(CCO)CC[C@H](CSc1ccccc1)Nc1ccc(S(=O)(=O)NC(=O)c2ccc(N3CCC([C@@H](O)c4ccccc4-c4ccc(Cl)cc4)CC3)cc2)cc1S(=O)(=O)C(F)(F)F [AZD4320] + C=CCn1c(=O)c2cnc(Nc3ccc(N4CCN(C)CC4)cc3)nc2n1-c1cccc(C(C)(C)O)n1 [AZD1775] (first compound max 1 µM, partner max 1 µM) | 0.0545 | -0.0373 | 0.0519 | 0.0616 | 0.0646 | 0.136 | 0.0051 | -0.107 | 0.028 | -0.0125 | -0.043 | -0.006 | -0.0134 | 0.0043 | -0.0107 | 0.0834 | 0.0312 | -0.0099 | -0.0088 | 0.0064
Cc1c2c(nn1C)CSCc1cc(n(C)n1)CSc1cc(c3ccccc3c1)OCCCc1c(C(=O)O)n(C)c3c-2c(Cl)ccc13 [AZD5991] + CN(C)CCCOc1ccc(-c2ccc3ncc4c(c3c2)n(C2CCOCC2)c(=O)n4C)cn1 [AZD0156] (first compound max 1 µM, 7x7, partner max 1 µM) | -0.0468 | 0.0066 | -0.0328 | -0.0093 | -0.013 | 0.0036 | 0.0541 | 0.0127 | -0.0352 | 0.02 | -0.0068 | -0.0139 | -0.0378 | -0.0169 | 0.0163 | 0.0033 | -0.0647 | -0.0161 | 0.0035 | -0.0356
COc1nnc2ccc(N3CCC(c4ccc(OCCN5CCN(C)C(=O)[C@H]5C)cc4)CC3)nn12 [AZD5153] + CC1(C)CCC(CN2CCN(c3ccc(C(=O)NS(=O)(=O)c4ccc(NCC5CCOCC5)c([N+](=O)[O-])c4)c(Oc4cnc5[nH]ccc5c4)c3)CC2)=C(c2ccc(Cl)cc2)C1 [Venetoclax] (first compound max 1 µM, 7x7, partner max 1 µM) | -0.0358 | -0.0228 | 0.0382 | -0.0114 | -0.0524 | -0.0694 | -0.0621 | -0.0672 | -0.0308 | -0.0637 | -0.0861 | 0.0245 | -0.0442 | -0.0454 | -0.0496 | 0.0045 | -0.0422 | -0.0343 | -0.0769 | -0.0439
Cc1cc2ncnn2cc1Nc1ncc2c(n1)n(C1CCOCC1)c(=O)n2C [AZD7648] + C[C@@H]1COCCN1C2=NC(=NC(=C2)C3(CC3)[S@](=N)(=O)C)C4=C5C=CNC5=NC=C4 [AZD6738] (first compound max 10 µM, 7x7, partner max 10 µM) | -0.009 | -0.0108 | -0.0029 | -0.0509 | -0.0234 | 0.074 | 0.0366 | -0.0122 | 0.0183 | -0.0283 | -0.064 | 0.0227 | 0.0641 | -0.0029 | 0.0116 | 0.0194 | 0.0045 | 0.0264 | -0.0306 | 0.0289
CN(C)CCCOc1ccc(-c2ccc3ncc4c(c3c2)n(C2CCOCC2)c(=O)n4C)cn1 [AZD0156] + CCN(CCO)CCCOc1ccc2c(Nc3cc(CC(=O)Nc4cccc(F)c4)[nH]n3)ncnc2c1 [AZD2811] (first compound max 1 µM, 7x7, partner max 1 µM) | -0.015 | -0.0713 | -0.0116 | -0.0221 | 0.0062 | -0.0172 | 0.0153 | 0.0201 | -0.0003 | 0.112 | -0.0366 | 0.0446 | -0.0559 | -0.0069 | -0.021 | 0.0516 | 0.0665 | -0.0563 | -0.0029 | -0.0291
COc1nnc2ccc(N3CCC(c4ccc(OCCN5CCN(C)C(=O)[C@H]5C)cc4)CC3)nn12 [AZD5153] + CCN(CCO)CCCOc1ccc2c(Nc3cc(CC(=O)Nc4cccc(F)c4)[nH]n3)ncnc2c1 [AZD2811] (first compound max 1 µM, 7x7, partner max 1 µM) | -0.0118 | -0.088 | -0.0159 | -0.0585 | -0.0802 | -0.0372 | 0.0167 | -0.0148 | 0.019 | -0.0158 | -0.0288 | 0 | -0.102 | -0.0004 | -0.0578 | 0.0041 | 0.0016 | 0.0129 | -0.0399 | -0.0669
